Assay [1] has as its target T1, EP300 (Homo sapiens, UniProt Q09472).
T1 construct: Cells growing in culture were lysed for whole cell lysates; endogenous in cells; host or cells: Kelly, NGP, SIMA, BE2C neuroblastoma cells; Kelly xenografts in NSG mice
Kind of assay: Western blotting of EP300 in treated NB cells. In kind it is cell-based. The protocol: (§1) Cells growing in culture were lysed for whole cell lysates as described in Durbin et al. Nat. Genet. 50:1240-1246 (2018) and Wang et al. Nat. Commun. 10:5622 (2019). Nuclear lysates were prepared using the NE-PER® nuclear lysate kit (Thermo Scientific™) according to the manufacturer's protocol. Chromatin lysates were prepared with the total histone extraction kit (Epigentek). Briefly, equivalent amounts of protein were resolved by western blotting using 4-12% Bis-Tris NuPAGE™ gels (Thermo-Fisher Scientific) prior to transfer, and immunoblotting using primary antibodies to: MYCN (1:1000, Cell Signaling Technology®), H3K27ac (1:1000, Abcam), total H3 (1:1000, Cell Signaling Technology®), EP300 (1:1000, Abcam), CBP (1:500, Cell Signaling Technology®), Cas9 (1:1000, Cell Signaling Technology®), cleaved-PARP1 (1:1000, Cell Signaling Technology), cleaved Caspase-3 (1:1000, Cell Signaling Technology®), β-actin (1:1000, Cell Signaling Technology®), GATA3 (1:1000, EMD Millipore™), TFAP2β (1:1000, Cell Signaling Technology®), Vinculin (1:1000, EMD Millipore™), CRBN (1:1000, Cell Signaling Technology®), HAND2 (1:1000, Santa Cruz Biotechnology). Secondary antibodies were horseradish peroxidase (HRP)-conjugated anti-rabbit or anti-mouse (1:5000, Santa Cruz Biotechnology), incubated prior to exposure to enhanced chemiluminescence reagents (GE, Amersham). For immunoprecipitation, equal amounts of protein were diluted in buffer C as described in Mansour et al. Science 346:1373-1377 (2014) and incubated with antibodies covalently conjugated to Dynabeads™ M-270 beads (Thermo-Fisher Scientific) overnight according to the manufacturer's directions. Antibodies used included: H3K27ac, EP300 (Abcam), CBP, TFAP2β (Cell Signaling Technology®), rabbit immunoglobulin G (IgG) (Santa Cruz Biotechnology®). Immunoprecipitated protein was isolated as per the manufacturer's directions and subjected to western blotting, as described above, or mass spectrometry.
(In general: In western blotting, separated proteins are transferred to a membrane and probed.)

The test system of the next assay is H3K27ac. Nature of the assay: Western blotting of H3K27ac in treated NB cells. In kind it is cell-based, human. The conditions noted are these: Kelly cells, 24 h. The protocol:
as §1

Assay [2] deals with T2, EP300 (Mus musculus, UniProt B2RWS6).
T2 construct: from tissue; host or cells: liver of Balb/c Crbn^ILE391VAL knock-in mice
Kind of assay: Immunohistochemistry of EP300 in liver of Crbn ILE391VAL knockin mice. In kind it is in vivo. The conditions noted are these: 40 mg/Kg IP daily, 14 days. The protocol:
For toxicity studies, four female CD1 mice (Charles River Laboratories) were injected intraperitoneally (IP) with single doses of 10 mg/Kg (R,S)-JQAD1 solubilized in 10% hydroxypropyl β-cyclodextrin (Sigma-Aldrich®) in sterile water. Following injection, blood concentration of (R,S)-JQAD1 was measured by serial measurements of animal serum at time points out to 24 h, by liquid chromatography with tandem mass spectrometry (LC-MS/MS) analysis. Pharmacokinetics were performed at ChemPartner in Shanghai, China, using LC-MS/MS method and pharmacokinetics parameters (Tmax, Cmax, T1/2, AUC, etc.) calculated with WinNonlin® V 6.2 statistics software (Pharsight Corporation) using a noncompartmental model. For maximally tolerated dose (MTD) testing, six female CD1 mice were treated with daily IP doses of (R,S)-JQAD1 at 10, 20, or 40 mg/kg. Animals were monitored for animal weight, grooming and behavior daily without noted effects. […] Animal weights, behavior and grooming were monitored daily, for a total of 21 days. […] Blood samples were obtained by retro-orbital puncture and blood analyzed at the Small Animal Imaging Facility at Beth Israel Deaconess Medical Center (Boston, MA), on a Hemavet® 9500FS (Drew Scientific) for blood counts, creatinine, AST, ALT, ALP, GGTP, and BUN measurements. […]

The subject of the next assay is 557 cancer cell lines. Kind of assay: PRISM pooled barcoded 5-day cell viability screen. It counts as cell-based, human. The protocol: PRISM barcoded pooled screening was performed using JQAD1 in 578 barcoded cell lines as described in Corsello et al. Nat. Med. 23:405-8 (2017) and Corsello et al. Nat Cancer 1:235-48 (2020). Some cell lines included in the screen were genetically engineered to express exogenous genes, and these cell lines were removed to yield 557 cell lines. Briefly, cells in pools of 20-25 were thawed and plated into 384-well plates (1250 cells/well for adherent cell pools, 2000 cells/well for suspension or mixed suspension/adherent cell pools) containing compound (top concentration: 10 μM, 8-point, threefold dilution). All conditions were tested in triplicate. Cells were lysed after 5 days of treatment and mRNA-based Luminex® detection of barcode abundance from lysates was carried out as described in Corsello et al. Cancer 1:235-48 (2020). Luminex median fluorescence intensity (MFI) data was input to a standardized R pipeline to generate viability estimates relative to vehicle treatment for each cell line and treatment condition, and to fit dose-response curves from viability data.

T1 sequence (Q09472 whole entry): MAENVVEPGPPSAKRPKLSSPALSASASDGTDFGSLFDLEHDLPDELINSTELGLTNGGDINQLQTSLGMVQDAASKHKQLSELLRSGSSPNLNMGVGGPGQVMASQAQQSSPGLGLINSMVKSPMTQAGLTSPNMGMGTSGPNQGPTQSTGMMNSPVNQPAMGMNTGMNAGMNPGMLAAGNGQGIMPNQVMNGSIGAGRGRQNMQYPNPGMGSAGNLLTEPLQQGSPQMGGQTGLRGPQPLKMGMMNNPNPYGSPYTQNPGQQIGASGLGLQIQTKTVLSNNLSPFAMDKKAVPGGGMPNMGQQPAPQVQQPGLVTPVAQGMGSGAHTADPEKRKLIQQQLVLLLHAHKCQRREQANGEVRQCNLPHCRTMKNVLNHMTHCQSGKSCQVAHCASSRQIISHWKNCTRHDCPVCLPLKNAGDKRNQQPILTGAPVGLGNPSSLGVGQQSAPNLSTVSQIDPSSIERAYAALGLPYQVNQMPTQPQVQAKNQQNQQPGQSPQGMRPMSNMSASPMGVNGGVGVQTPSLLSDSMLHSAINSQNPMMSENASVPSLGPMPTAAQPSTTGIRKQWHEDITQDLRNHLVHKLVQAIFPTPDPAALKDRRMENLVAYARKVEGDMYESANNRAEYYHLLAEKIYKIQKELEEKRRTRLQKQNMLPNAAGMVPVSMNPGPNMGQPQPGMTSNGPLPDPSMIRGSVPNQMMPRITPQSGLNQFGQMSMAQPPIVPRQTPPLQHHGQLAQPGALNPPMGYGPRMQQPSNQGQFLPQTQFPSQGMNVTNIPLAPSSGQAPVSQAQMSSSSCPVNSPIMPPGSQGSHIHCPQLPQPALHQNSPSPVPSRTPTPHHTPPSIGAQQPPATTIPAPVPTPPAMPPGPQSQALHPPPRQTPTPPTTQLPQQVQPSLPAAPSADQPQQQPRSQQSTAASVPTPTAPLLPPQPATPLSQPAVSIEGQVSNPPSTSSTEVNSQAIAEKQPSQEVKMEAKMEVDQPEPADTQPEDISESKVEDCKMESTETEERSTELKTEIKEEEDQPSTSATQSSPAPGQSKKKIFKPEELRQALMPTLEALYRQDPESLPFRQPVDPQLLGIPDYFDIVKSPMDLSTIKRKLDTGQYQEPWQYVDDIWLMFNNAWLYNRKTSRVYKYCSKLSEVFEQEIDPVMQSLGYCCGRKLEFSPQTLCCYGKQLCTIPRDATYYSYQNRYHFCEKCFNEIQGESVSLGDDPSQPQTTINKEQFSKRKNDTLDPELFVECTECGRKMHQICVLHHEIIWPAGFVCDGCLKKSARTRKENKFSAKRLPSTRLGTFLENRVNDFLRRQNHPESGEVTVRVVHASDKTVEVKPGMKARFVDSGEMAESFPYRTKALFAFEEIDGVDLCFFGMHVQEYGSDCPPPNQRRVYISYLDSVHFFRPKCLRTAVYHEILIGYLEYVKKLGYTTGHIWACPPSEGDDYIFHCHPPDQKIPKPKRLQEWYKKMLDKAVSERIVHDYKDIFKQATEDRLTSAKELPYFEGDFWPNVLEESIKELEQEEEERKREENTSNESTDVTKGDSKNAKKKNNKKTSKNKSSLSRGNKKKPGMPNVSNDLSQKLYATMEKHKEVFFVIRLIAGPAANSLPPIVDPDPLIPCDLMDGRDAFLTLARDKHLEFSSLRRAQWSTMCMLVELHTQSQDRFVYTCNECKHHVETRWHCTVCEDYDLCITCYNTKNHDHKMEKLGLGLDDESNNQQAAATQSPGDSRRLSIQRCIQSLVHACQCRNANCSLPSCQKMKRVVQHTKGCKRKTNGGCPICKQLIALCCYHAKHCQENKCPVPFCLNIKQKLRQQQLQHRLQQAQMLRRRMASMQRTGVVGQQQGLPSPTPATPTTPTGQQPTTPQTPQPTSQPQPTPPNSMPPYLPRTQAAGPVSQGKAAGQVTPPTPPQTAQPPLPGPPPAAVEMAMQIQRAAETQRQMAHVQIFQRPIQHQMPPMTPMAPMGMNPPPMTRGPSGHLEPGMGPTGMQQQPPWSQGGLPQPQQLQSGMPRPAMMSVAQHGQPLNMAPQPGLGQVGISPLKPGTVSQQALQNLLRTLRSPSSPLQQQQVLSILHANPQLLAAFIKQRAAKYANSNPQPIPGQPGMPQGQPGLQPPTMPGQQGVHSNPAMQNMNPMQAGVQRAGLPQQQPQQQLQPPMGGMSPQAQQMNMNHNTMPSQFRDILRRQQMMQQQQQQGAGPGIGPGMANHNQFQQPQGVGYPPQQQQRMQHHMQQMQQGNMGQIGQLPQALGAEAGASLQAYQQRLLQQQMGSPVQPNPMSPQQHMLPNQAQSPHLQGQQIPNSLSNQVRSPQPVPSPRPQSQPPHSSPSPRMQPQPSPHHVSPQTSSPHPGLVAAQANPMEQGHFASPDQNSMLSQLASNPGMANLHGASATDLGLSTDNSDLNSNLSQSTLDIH
T2 sequence (B2RWS6 whole entry): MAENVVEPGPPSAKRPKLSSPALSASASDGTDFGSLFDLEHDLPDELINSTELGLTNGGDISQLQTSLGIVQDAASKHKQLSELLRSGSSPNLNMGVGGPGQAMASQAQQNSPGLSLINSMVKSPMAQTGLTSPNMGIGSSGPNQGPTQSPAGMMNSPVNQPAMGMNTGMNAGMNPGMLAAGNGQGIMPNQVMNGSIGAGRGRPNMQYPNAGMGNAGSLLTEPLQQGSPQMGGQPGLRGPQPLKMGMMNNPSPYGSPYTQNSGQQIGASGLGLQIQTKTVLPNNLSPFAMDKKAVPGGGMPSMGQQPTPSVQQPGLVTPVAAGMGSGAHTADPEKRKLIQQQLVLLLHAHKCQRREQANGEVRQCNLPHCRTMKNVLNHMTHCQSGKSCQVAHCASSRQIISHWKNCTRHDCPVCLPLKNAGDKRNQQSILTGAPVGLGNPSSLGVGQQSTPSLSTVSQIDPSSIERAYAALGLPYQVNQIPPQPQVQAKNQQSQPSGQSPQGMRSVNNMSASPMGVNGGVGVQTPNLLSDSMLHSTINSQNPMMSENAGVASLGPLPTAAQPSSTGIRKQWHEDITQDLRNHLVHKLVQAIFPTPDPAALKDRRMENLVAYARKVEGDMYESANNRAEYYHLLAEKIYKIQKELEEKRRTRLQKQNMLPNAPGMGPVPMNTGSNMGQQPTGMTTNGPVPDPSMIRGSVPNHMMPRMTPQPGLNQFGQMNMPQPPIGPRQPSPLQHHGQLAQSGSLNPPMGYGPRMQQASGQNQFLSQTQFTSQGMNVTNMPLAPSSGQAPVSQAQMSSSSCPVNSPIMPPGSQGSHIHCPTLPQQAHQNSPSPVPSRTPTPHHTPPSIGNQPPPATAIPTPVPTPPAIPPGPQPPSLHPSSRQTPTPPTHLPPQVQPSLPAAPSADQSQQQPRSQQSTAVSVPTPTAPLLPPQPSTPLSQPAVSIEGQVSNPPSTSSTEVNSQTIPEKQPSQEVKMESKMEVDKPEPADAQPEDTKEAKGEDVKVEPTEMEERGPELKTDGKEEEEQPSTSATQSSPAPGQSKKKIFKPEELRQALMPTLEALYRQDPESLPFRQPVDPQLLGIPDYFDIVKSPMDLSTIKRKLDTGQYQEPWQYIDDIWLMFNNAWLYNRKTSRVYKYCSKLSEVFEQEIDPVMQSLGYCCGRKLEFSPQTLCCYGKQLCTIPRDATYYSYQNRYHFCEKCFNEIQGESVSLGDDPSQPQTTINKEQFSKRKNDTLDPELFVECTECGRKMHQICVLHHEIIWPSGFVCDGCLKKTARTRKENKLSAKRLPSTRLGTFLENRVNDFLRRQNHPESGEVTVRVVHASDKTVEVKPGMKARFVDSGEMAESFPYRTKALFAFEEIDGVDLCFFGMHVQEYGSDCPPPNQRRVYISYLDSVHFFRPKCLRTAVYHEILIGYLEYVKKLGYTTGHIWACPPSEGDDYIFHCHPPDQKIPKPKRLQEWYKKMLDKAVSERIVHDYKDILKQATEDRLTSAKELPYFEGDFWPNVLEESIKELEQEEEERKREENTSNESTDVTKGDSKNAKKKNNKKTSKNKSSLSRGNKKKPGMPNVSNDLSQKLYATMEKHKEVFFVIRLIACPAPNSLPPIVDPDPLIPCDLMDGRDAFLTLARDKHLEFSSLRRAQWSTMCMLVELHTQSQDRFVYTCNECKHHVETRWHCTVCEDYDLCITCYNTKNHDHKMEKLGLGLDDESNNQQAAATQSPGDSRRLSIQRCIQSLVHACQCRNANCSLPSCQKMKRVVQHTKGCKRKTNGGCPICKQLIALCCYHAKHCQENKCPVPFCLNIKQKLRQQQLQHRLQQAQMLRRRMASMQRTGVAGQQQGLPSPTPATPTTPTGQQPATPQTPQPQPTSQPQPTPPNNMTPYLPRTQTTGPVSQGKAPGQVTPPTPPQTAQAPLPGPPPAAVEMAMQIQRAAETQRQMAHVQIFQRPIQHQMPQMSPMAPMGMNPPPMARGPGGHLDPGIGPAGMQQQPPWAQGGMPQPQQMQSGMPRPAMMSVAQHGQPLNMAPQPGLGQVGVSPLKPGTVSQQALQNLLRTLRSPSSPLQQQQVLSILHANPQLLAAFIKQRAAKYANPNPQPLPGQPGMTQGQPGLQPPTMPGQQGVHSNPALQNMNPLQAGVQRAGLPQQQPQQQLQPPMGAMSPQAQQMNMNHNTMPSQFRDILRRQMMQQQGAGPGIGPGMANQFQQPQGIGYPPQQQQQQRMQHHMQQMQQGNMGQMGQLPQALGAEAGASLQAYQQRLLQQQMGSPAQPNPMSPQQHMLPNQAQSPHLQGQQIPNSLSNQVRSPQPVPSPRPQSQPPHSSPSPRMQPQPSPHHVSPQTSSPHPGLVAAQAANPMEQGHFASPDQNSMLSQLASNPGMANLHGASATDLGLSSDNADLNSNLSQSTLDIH

For the compound `C[C@H](N(Cc1ccc(F)cc1)C(=O)CN1C(=O)O[C@@]2(CCc3cc(NC(=O)CCCCCCCCCCCNc4ccc5c(c4)C(=O)N(C4CCC(=O)NC4=O)C5=O)ccc32)C1=O)C(F)(F)F` (stereo partly drawn) [JQAD1, 12-((2-(2,6-dioxopiperidin-3-yl)-1,3-dioxoisoindolin-5-yl)amino)-N-((R)-3′-(2-((4-fluorobenzyl)((S)-1,1,1-trifluoropropan-2-yl)amino)-2-oxoethyl)-2′,4′-dioxo-2,3-dihydrospiro[indene-1,5′-oxazolidin]-5-yl)dodecanamide], the “EP300 expression in BE2C-CRBN cells” value on EP300 [1] (BE2C cells overexpressing CRBN, 10 μM) is “degraded within 24 h”. At EP300 [1] (BE2C-zsGreen cells, 10 μM), the “EP300 expression in control BE2C-zsGreen cells” value was “unaffected”. Besides, the “degradation of EP300 on co-treatment with excess A485, pomalidomide, bortezomib or MLN4924” value at EP300 [1] (Kelly cells, 4 h pre-treatment, then JQAD1 500 nM 48 h) is given as “blocked”. The EP300 expression entry was “dose-dependent decrease in EP300 expression” on EP300 [1] (Kelly cells, 24 h); “suppressed both H3K27ac and EP300 expression levels” on EP300 [1] (Kelly cells, 24 h, listed as (R,S)-JQAD1). The “EP300 expression (time course)” value at EP300 [1] (Kelly, NGP and SIMA cells) was “selective loss of EP300 expression by 24 h”. At EP300 [1] (Kelly-Cas9 cells, 500 nM, 24 h), the “EP300, H3K27ac and PARP1 cleavage in control versus CRBN-edited cells” value is “suppressed EP300 expression and the H3K27ac modification, and induced apoptosis marked by PARP1 cleavage in control knockout cells, but not in CRBN-edited cells”. For the same compound, the H3K27ac modification entry is “parallel loss of the H3K27ac modification” in the assay on H3K27ac; “suppressed both H3K27ac and EP300 expression levels” with H3K27ac (listed as (R,S)-JQAD1). Moreover, on EP300 [2], the “EP300 protein expression in liver” value is listed as “reduced EP300 protein expression levels in the liver cell nuclei”. The antineoplastic activity result in the assay on 557 cancer cell lines (5 days, 557 cancer cell lines) is reported as “antineoplastic activity across multiple tumor lineages”. For the same compound, the “area under the curve (AUC) of the dose-response in growth-inhibited cell lines” value with 557 cancer cell lines (5 days, top concentration 10 μM, some example cell lines within the majority of tumor lineages) is listed as less than 0.85. Further, the “relation of CRBN expression to AUC of the dose-response” value with 557 cancer cell lines (CRBN expression from CCLE) is “higher expression levels of CRBN were correlated with higher JQAD1-mediated antineoplastic activity”.
